What all share (type): in vivo
The test system of series [1] is barnyardgrass (Echinochloa oryzicola vasing). The experiment in a line: Growth inhibition of barnyardgrass in paddy soil pots, application under submerged condition, visual rating (observed value) and Colby expected value. The following applies: Echinochloa oryzicola, soil, read-out: Growth inhibition rate (%) Observed. Put shortly:
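Barnyardgrass (Echinochloa oryzicola vasing) seeds were sown in paddy field soil in 1/10,000 are pots and kept irrigated at a water depth of 3.5 cm. Wettable powders of the active ingredients were diluted with water and applied under submerged conditions at the prescribed amounts. Growth was visually scored from 0% (as untreated) to 100% (complete kill), and expected values were calculated with Colby's formula.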

Series [2] deals with flatsedge (Cyperus serotinus). The series is described as follows: Growth inhibition of flatsedge (planted tubers) in paddy soil pots, application under submerged condition, visual rating and Colby expected value. The following applies: Cyperus serotinus, soil, 720 h, 2.5 to 3.0 leaf stage, 30 days after application, Test Examples 46-60, read-out: Growth inhibition rate (%) Observed. The text has this: (§1) When the herbicidal activity in a case where two active ingredients are combined, is larger than the simple sum of the respective herbicidal activities of the two active ingredients (the expected activity), it is called a synergistic effect. The activity expected by the combination of two active ingredients can be calculated as follows (Colby S. R., “Weed”, vol. 15, p. 20-22, 1967). E=p+q−(p×q÷100) where p: growth inhibition rate when treated with x (g/a) of herbicide X,
(§2) q: growth inhibition rate when treated with y (g/a) of herbicide Y,
(§3) E: growth inhibition rate expected when treated with x (g/a) of herbicide X and y (g/a) of herbicide Y.
(§4) Namely, when the actual growth inhibition rate (observed value) is larger than the growth inhibition rate by the above calculation (expected value), the activity by the combination can be regarded as showing a synergistic effect.
(§5) Growth inhibition rate (%)=0% (equivalent to the non-treated area) to 100% (complete kill)
Paddy field soil was put into a 1/10,000 are pot, and tubers of flatsedge (Cyperus serotinus) were planted and left to stand under an irrigated condition with a water depth of 3.5 cm. When flatsedge reached 2.8 to 3.2 leaf stage, wettable powders of compound A2 and compound (B1.2) were, respectively, diluted with water and applied under submerged condition so that the active ingredients became the prescribed amounts, respectively. The state of growth was visually observed 29 days after application, and evaluation and calculation were carried out in the same manner as in the above Test Example 1.
Paddy field soil was put into a 1/3,000 are pot, and tubers of flatsedge (Cyperus serotinus) were planted and left to stand under an irrigated condition with a water depth of 3.5 cm. When flatsedge reached 4 leaf stage, a wettable powder of compound A2 and an emulsifiable concentrate of compound C4 were, respectively, diluted with water and applied under submerged condition so that the active ingredients became the prescribed amounts, respectively. The state of growth was visually observed 21 days after application, and the growth inhibition rate (%) evaluated in the same manner as in the above Test Example 1 (observed value) and the growth inhibition rate (%) calculated by the above-mentioned Colby method (expected value) are shown in Table 32.
Paddy field soil was put into a 1/10,000 are pot, and tubers of flatsedge (Cyperus serotinus) were planted and left to stand under an irrigated condition with a water depth of 3.5 cm. When flatsedge reached 2.5 to 3.0 leaf stage, wettable powders of compound A2, compound (D2.3) and compound (B4.1) were, respectively, diluted with water and applied under submerged condition so that the active ingredients became the prescribed amounts, respectively. The state of growth was visually observed 30 days after application, and evaluated in the same manner as in the above Test Example 1.
Paddy field soil was put into a 1/10,000 are pot, and tubers of flatsedge (Cyperus serotinus) were planted and left to stand under an irrigated condition with a water depth of 3.5 cm. When flatsedge reached 2.5 to 3.0 leaf stage, wettable powders of compound A2, compound (D2.3) and compound (B6.1) were, respectively, diluted with water and applied under submerged condition so that the active ingredients became the prescribed amounts, respectively. The state of growth was visually observed 30 days after application, and evaluated in the same manner as in the above Test Example 1.
Paddy field soil was put into a 1/10,000 are pot, and tubers of flatsedge (Cyperus serotinus) were planted and left to stand under an irrigated condition with a water depth of 3.5 cm. When flatsedge reached 2.5 to 3.0 leaf stage, wettable powders of compound A2, compound (D2.3) and compound (B8.1) were, respectively, diluted with water and applied under submerged condition so that the active ingredients became the prescribed amounts, respectively. […]

Series [3] concerns rice (Oryza sativa var. Nihonbare). The experiment in a line: Growth inhibition (phytotoxicity) of transplanted rice by compound A2 with or without compound D, application under submerged condition, visual rating 7 and 21 days after application. The following applies: Compound A2 60 g/ha + Compound D 600 g/ha, applied 5 days after implantation; for Growth inhibition rate (%) (average) 7 days: 7 days after application; for Growth inhibition rate (%) (average) 21 days: 21 days after application.
Excerpt: as §5
Paddy field soil was put into a 1/500,000 hectare pot, harrowed and irrigated with a depth of 3 cm. On the next day, rice (Oryza sativa var. Nihonbare) at 2 leaf stage was implanted with a depth of 3 cm. A wettable powder of compound A2 and a wettable powder of compound D were, respectively, diluted with water and applied under submerged condition 5 days after implantation so that the active ingredients became the prescribed amounts, respectively. The state of growth of rice was visually observed 7 days and 21 days after application, and the growth inhibition rate (%) was evaluated in the same is manner as in the above Test Example 1.

Series [4] deals with barnyardgrass (Echinochloa oryzicola vasing). The experiment in a line: Growth inhibition of barnyardgrass in paddy soil pots, foliar application with a small sprayer, visual rating and Colby expected value. The note with it: Echinochloa oryzicola, 504 h, 3.0 to 3.3 leaf stage, 21 days after application, read-out: Growth inhibition rate (%) Observed.
Excerpt: as §1, §2, §3, §4, §5
Paddy field soil was put into a 1/10,000 are pot, and seeds of barnyardgrass (Echinochloa oryzicola vasing) were sown and left to stand under an irrigated condition with a water depth of 3.5 cm. When barnyardgrass reached 3.0 to 3.3 leaf stage, a wettable powder of compound A2 and a water-based suspension of compound (B11.1) were, respectively, diluted with water in an amount of 1,000 liter/ha, followed by foliar application with a small sprayer. The state of growth was visually observed 21 days after application, and evaluation and calculation were carried out in the same manner as in the above Test Example 1.

Series [5] relates to Japanese bulrush (Scirpus juncoides). The experiment in a line: Growth inhibition of Japanese bulrush in paddy soil pots, application under submerged condition, visual rating and Colby expected value. The following applies: Schoenoplectiella juncoides, soil, 456 h, 3 leaf stage, 19 days after application, Test Example 37, read-out: Growth inhibition rate (%) Observed.
Excerpt: as §1, §2, §3, §4, §5
(§6) Paddy field soil was put into a 1/10,000 are pot, and seeds of Japanese bulrush (Scirpus juncoides) were sown and left to stand under an irrigated condition with a water depth of 3.5 cm. When Japanese bulrush reached 2.3 to 2.6 leaf stage, a wettable powder of compound A2 and granules of compound (B7.1) were, respectively, diluted with water and applied under submerged condition so that the active ingredients became the prescribed amounts, respectively. The state of growth was visually observed 10 days after application, and evaluation and calculation were carried out in the same manner as in the above Test Example 1.
as §6, with “an emulsifiable concentrate” for “granules”, “(B3.1)” for “(B7.1)”
Paddy field soil was put into a 1/10,000 are pot, and seeds of Japanese bulrush (Scirpus juncoides) were sown and left to stand under an irrigated condition with a water depth of 3.5 cm. When Japanese bulrush reached 2 leaf stage, wettable powders of compound A2, C2 and C4 and granules of compound C6 were, respectively, diluted with water and applied under submerged condition so that the active ingredients became the prescribed amounts, respectively.
Paddy field soil was put into a 1/10,000 are pot, and seeds of Japanese bulrush (Scirpus juncoides) were sown and left to stand under an irrigated condition with a water depth of 3.5 cm. When Japanese bulrush reached 2 leaf stage, wettable powders of compound A2, C2 and C4 and granules of compound C6 were, respectively, diluted with water and applied under submerged condition so that the active ingredients became the prescribed amounts, respectively. The state of growth was visually observed 19 days after application, and the growth inhibition rate (%) evaluated in the same manner as in the above Test Example 1 (observed value) and the growth inhibition rate (%) calculated by the above-mentioned Colby method (expected value) are shown in Tables 36, 37 and 38.
Paddy field soil was put into a 1/10,000 are pot, and seeds of Japanese bulrush (Scirpus juncoides) were sown and left to stand under an irrigated condition with a water depth of 3.5 cm. When Japanese bulrush reached 3 leaf stage, wettable powders of compound A2 and compound (D2.2) were, respectively, diluted with water and applied under submerged condition so that the active ingredients became the prescribed amounts, respectively. […]

Where two headings read alike, the source gives them in different places.

Turning to `COc1cccc(N(C)C(=S)Oc2cccc(C(C)(C)C)c2)n1` [Compound (D2.3), O-3-tert-butylphenyl 6-methoxy-2-pyridyl(methyl)thiocarbamate], the inhibition at 188 g/ha turned out to be 0% in series [1] (504 h, 1.88 g/a, 2.8 to 3.2 leaf stage, 21 days after application, Test Examples 39-43) and 3% in series [1] (528 h, 188 g/ha, 3 leaf stage, 22 days after application, Test Example 38). Besides, the inhibition at 375 g/ha in series [1] (504 h, 3.75 g/a, 2.8 to 3.2 leaf stage, 21 days after application, Test Examples 39-43) turned out to be 0%; in series [1] (528 h, 375 g/ha, 3 leaf stage, 22 days after application, Test Example 38), 7%. Besides, the inhibition at 600 g/ha in series [2] (6 g/a) is 20%. Further, the “Growth inhibition rate (%) (average) 7 days” value in series [3] came to 3%. Further, the “Growth inhibition rate (%) (average) 21 days” value in series [3] came to 5%.

Take `CC(C)(SC(=O)N1CCCCC1)c1ccccc1` [(D2.1), S-1-methyl-1-phenylethyl piperidine-1-carbothioate]: in series [3], the “Growth inhibition rate (%) (average) 7 days” value is recorded as 5% and the “Growth inhibition rate (%) (average) 21 days” value came to 10%.

Consider `COc1cnc(OC)n2nc(NS(=O)(=O)c3c(OCC(F)F)cccc3C(F)(F)F)nc12` [Compound (B11.1), penoxsulam], for which the inhibition at 4.7 g/ha in series [4] (0.047 g/a) was 10%. Also, in series [4] (0.094 g/a), the inhibition at 9.4 g/ha amounted to 47%. In series [4] (0.188 g/a), the inhibition at 18.8 g/ha came out at 80%.

As to `CCSC(=O)N1CCCCCC1` [Compound (D2.2), S-ethyl azepane-1-carbothioate], the inhibition at 900 g/ha in series [5] (900 g/ha) worked out at 60%. The inhibition at 1800 g/ha in series [5] (1,800 g/ha) turned out to be 60%. In addition, in series [3], the “Growth inhibition rate (%) (average) 7 days” value came to 7% and the “Growth inhibition rate (%) (average) 21 days” value came to 17%.

With `Cc1ccc(NC(=O)NC(C)(C)c2ccccc2)cc1` [Compound (D1.1), 1-(1-methyl-1-phenylethyl)-3-p-tolylurea], the inhibition at 563 g/ha in series [1] (528 h, 563 g/ha, 3 leaf stage, 22 days after application, Test Example 36) came out at 0%. In addition, the inhibition at 1125 g/ha in series [1] (528 h, 1,125 g/ha, 3 leaf stage, 22 days after application, Test Example 36) is 10%. Besides, the inhibition at 1500 g/ha in series [2] (15 g/a) came to 20%. In series [3], the “Growth inhibition rate (%) (average) 7 days” value was 2% and the “Growth inhibition rate (%) (average) 21 days” value is reported as 10%.

As a reminder, the inhibition is how much of the control response was suppressed.

The values are drawn from US20070232492A1, “Herbicidal Composition” (Ishihara Sangyo Kaisha, LTD., priority 2004, published 2007).
